Results reported in patent US8399380B2, “Herbicidal composition” (Sumitomo Chemical Company, Limited, priority 2007, dated 2013).

Columns and labels:
Format in all cases: in vivo
Design in all cases: key: 0: there is no or little difference in the degree of growth between treated plants and untreated plants at the time of observation; 1: evaluated at 6 levels using the indices of 0 to 5; 2: evaluated at 6 levels using the indices of 0 to 5; 3: evaluated at 6 levels using the indices of 0 to 5; The herbicidal values of “4” and “5” show excellent herbicidal activity; 5: the test plants die completely or their growth is completely inhibited
[1] = test system: Alopecurus myosuroides; test: Test Example 1, soil application, pot test in greenhouse; conditions: 34 days after application
Text: (§1) The herbicidal values of “4” and “5” show excellent herbicidal activity. Each of plastic pots (measuring 22 cm in diameter and 19 cm in height) was filled with upland field soil and sown with Lolium multiflorum and Alopecurus myosuroides. Each of the predetermined amounts of a flumioxazin formulation product (trade name: Valor_SX, manufactured by Valent USA Corporation), a sulfosulfuron formulation product (trade name: Monitor, manufactured by Monsanto Company) and a mixture of the flumioxazin formulation product and the sulfosulfuron formulation product was diluted with water, and then the dilution was uniformly sprayed over the soil surface by a small-sized sprayer. After the treatment, the weeds were grown in a greenhouse, and the herbicidal activity against the weeds was evaluated at 34 days after application.

[2] = test system: Lolium multiflorum; test: as above; conditions: 34 days after application
Text: as §1

[3] = test system: Solidago altissima; test: Test Example 2, foliar application, pot test in greenhouse; conditions: 29 days after treatment
Text: The herbicidal values of “4” and “5” show excellent herbicidal activity. Each of plastic pots (measuring 12 cm in diameter and 8 cm in height) was filled with upland field soil and Solidago altissima collected from outdoors was transplanted to the plastic pot and grown in a greenhouse for 31 days. Each of the predetermined amounts of a flumioxazin formulation product (trade name: Valor_SX, manufactured by Valent USA Corporation), a sulfosulfuron formulation product (trade name: Monitor, manufactured by Monsanto Company) and a mixture of the flumioxazin formulation product and the sulfosulfuron formulation product was diluted with water, and then the dilution was uniformly sprayed over each plant body from above by a small-sized sprayer. After the treatment, the weeds were grown in a greenhouse for 29 days, and then the herbicidal activity against the weeds was evaluated.

## CCS(=O)(=O)c1nc2ccccn2c1S(=O)(=O)NC(=O)Nc1nc(OC)cc(OC)n1 [Sulfosulfuron, 1-(4,6-dimethoxypyrimidin-2-yl)-3-(2-ethylsulfonylimidazo[1,2-a]pyridin-3-ylsulfonyl)urea]
[1]; active ingredient 20 g/ha
  Herbicidal activity Alopecurus myosuroides: 0
[1]; active ingredient 40 g/ha
  Herbicidal activity Alopecurus myosuroides: 2
[2]; active ingredient 20 g/ha
  Herbicidal activity Lolium multiflorum: 0
[2]; active ingredient 40 g/ha
  Herbicidal activity Lolium multiflorum: 0
[3]; active ingredient 40 g/ha
  Herbicidal activity Solidago altissima: 2

## C#CCN1C(=O)COc2cc(F)c(N3C(=O)C4=C(CCCC4)C3=O)cc21 [Flumioxazin, N-(7-fluoro-3,4-dihydro-3-oxo-4-prop-2-ynyl-2H-1,4-benzeoxazin-6-yl)cyclohex-1-ene-1,2-dicarboxamide]
[1]; active ingredient 10 g/ha
  Herbicidal activity Alopecurus myosuroides: 1
[1]; active ingredient 20 g/ha
  Herbicidal activity Alopecurus myosuroides: 4
[2]; active ingredient 10 g/ha
  Herbicidal activity Lolium multiflorum: 0
[2]; active ingredient 20 g/ha
  Herbicidal activity Lolium multiflorum: 1
[3]; active ingredient 60 g/ha
  Herbicidal activity Solidago altissima: 0
[3]; active ingredient 120 g/ha
  Herbicidal activity Solidago altissima: 1
